Experimental data from patent US20020061345A1, “PROCEDURE FOR PREPARING A FOOD ADDITIVE, AND AN ADDITIVE AND ITS USE” (priority 1996, published 2002).
Marks after values point to notes of the source that are not given here.

What was measured:
[1] = Example 6 feeding test in growing piglets, growth and diarrhoea; type: in vivo
Experimental: An amount of a product obtained from baking yeast by hydrolytic treatment, was added to the fodder of growing piglets. The fodder for the reference group contained Olaqvindox chemotherapeutic substance, 50 mg/kg. In the fodder for the yeast group, instead of Olaqvindox, yeast fraction was added in an amount of 0.5%.

[2] = Example 7 feeding test in growing pigs; type: in vivo; conditions: Olagvindox 50 ppm, 33 test days
Experimental: An amount of a product obtained from baking yeast by hydrolytic treatment, was added to the fodder of growing pigs. The measurement was implemented as in the preceding example.

[3] = Example 5 feeding test, development of piglets; type: in vivo, pigs
Source text: In this test, four equal groups of pigs were fed with the following fodders:
Group 1: basic fodder (reference)
Group 2: basic fodder+40 ppm Avilamysine
Group 3: basic fodder+product prepared from yeast by hydrolytic treatment, in an amount of 0.5 w-% (of dry matter)
Group 4: basic fodder+product prepared from yeast by hydrolytic treatment, in an amount of 1.0 w-% (of dry matter).

[4] = group 2, basic fodder + 40 ppm Avilamysine

| Compound | Additional growth ([1]; Olaqvindox 50 ppm in fodder) [g/day] | Fodder efficiency kg/kg ([1]; Olaqvindox 50 ppm in fodder) [kg/kg] | Final weight ([1]; Olaqvindox 50 ppm in fodder, initial weight 7.10 kg) [kg] | Diarrhoea index ([1]; Olaqvindox 50 ppm, average, 1 = normal faeces, 2 = loose faeces, 3 = watery diarrhoea) | Treatments for diarrhoea, % of farrows ([1]; Olaqvindox 50 ppm, treated with an antibiotic or with zinc oxide because of diarrhoea) | Fodder efficiency kg/kg [2] [kg/kg] | Additional growth, g/day ([2]; initial weight 21.7 kg) | effect on growth and fodder consumption compared with the reference group ([3]; 40 ppm Avilamysine) | ADG [3, 4] [g/day] | FCR kg fodder/kg Weight increase [3, 4] [kg fodder/kg] | Final weight ([3]; group 2, basic fodder + 40 ppm Avilamysine, starting weight 10.6 kg) [kg] |
| --- | --- | --- | --- | --- | --- | --- | --- | --- | --- | --- | --- |
| Cc1c(C(=O)NCCO)[n+]([O-])c2ccccc2[n+]1[O-] [Olaqvindox] | 255 | 1.61 | 12.47 | 2.5 | 100 % of farrows | 2.07 | 777^a g/day |  |  |  |  |
| Avilamysine |  |  |  |  |  |  |  | increased the growth and fodder consumption effectively | 502 | 1.81 | 24.1 |
